Test results published in patent US20220356176A1, “Kv11.1-3.1 INHIBITING METHODS AND COMPOSITIONS” (The Johns Hopkins University, priority 2019, published 2022).
Counter-ions that a name gives are not always drawn.

Molecular target: T1, KCNH2-3.1 (Kv11.1-3.1 containing potassium channel; hERG 3.1) (Homo sapiens, UniProt Q12809)
T1 construct: expressed in transfected cells; host or cells: U2OS cells transduced with hERG 3.1 BacMam virus
Assay: KCNH2-3.1 inhibition ion (thallium) flux assay, FluxOR
Type: cell-based
Settings: U2OS cells transduced with hERG 3.1 Bacmam virus, 5 minutes compound incubation, read-out: Activity range (IC50)
Excerpt: The ability of the presently disclosed compounds to inhibit the activity of the ion channel produced from the KCNH2-3.1 transcript may be determined by methods known to those in the art for measuring ion channel inhibition. One method for measuring ion channel activity uses a thallium flux assay (Titus et al., 2009; FluxOR™ kit from Life Technologies). This assay measures the passage of thallium through the channel as indicated by a thallium sensitive dye loaded into the cell.
The ability of compounds to inhibit the activity of KCNH2-3.1 was determined by an ion flux assay as described (Titus et al, 2009, which is incorporated herein by reference). U2OS cells were cultured in media containing DMEM, 10% FBS, and Penicillin/Streptomycin. Cells were grown to 90% confluency then washed with PBS and pelleted. Cells were resuspended in DMEM containing 2% FBS and incubated with hERG or hERG 3.1 Bacmam virus for 4 hours at room temperature in the dark. Cells were plated onto clear-bottom PDL coated 1536 well plates and allowed to grow 16-20 hours at 37° C. FluxOr loading buffer containing 10mM Red Dye #40 was added to each well and incubated for 45 minutes. Plates were loaded and analyzed in Hamamatsu FDSS (7000) using a two-addition protocol. In the first addition step of the assay, compounds to be tested and the cell compound mixture were incubated together for 5 minutes before addition of FluxOr stimulus buffer as the second addition step. Channel activity was detected and analyzed via the slope of fluorescence intensities versus the time of first 30 s after compound addition was calculated from the kinetic results. The signal-to-basal ratio was calculated as the slope of DMSO solvent controls in the stimulated group divided by the slope of an unstimulated group. The concentration responses of compound inhibition from the experiments were analyzed with Prism software (GraphPad, San Diego, Calif., USA).
As the data herein indicate, a broad variety of compounds of formula (I), formula (II), or formula (III) were found effective as KCNH2-3.1 containing potassium channel inhibitors at low concentrations. […] In the Table 1 below, a single plus (+) is associated with an IC50 of from about 2-10 μM; two plus signs (++) is associated with an IC50 from about 500 nM to about 2 μM; and three plus signs (+++) is associated with an IC50 less than about 500 nM.

T1 sequence (Q12809 1-1063 isoform Q12809-7): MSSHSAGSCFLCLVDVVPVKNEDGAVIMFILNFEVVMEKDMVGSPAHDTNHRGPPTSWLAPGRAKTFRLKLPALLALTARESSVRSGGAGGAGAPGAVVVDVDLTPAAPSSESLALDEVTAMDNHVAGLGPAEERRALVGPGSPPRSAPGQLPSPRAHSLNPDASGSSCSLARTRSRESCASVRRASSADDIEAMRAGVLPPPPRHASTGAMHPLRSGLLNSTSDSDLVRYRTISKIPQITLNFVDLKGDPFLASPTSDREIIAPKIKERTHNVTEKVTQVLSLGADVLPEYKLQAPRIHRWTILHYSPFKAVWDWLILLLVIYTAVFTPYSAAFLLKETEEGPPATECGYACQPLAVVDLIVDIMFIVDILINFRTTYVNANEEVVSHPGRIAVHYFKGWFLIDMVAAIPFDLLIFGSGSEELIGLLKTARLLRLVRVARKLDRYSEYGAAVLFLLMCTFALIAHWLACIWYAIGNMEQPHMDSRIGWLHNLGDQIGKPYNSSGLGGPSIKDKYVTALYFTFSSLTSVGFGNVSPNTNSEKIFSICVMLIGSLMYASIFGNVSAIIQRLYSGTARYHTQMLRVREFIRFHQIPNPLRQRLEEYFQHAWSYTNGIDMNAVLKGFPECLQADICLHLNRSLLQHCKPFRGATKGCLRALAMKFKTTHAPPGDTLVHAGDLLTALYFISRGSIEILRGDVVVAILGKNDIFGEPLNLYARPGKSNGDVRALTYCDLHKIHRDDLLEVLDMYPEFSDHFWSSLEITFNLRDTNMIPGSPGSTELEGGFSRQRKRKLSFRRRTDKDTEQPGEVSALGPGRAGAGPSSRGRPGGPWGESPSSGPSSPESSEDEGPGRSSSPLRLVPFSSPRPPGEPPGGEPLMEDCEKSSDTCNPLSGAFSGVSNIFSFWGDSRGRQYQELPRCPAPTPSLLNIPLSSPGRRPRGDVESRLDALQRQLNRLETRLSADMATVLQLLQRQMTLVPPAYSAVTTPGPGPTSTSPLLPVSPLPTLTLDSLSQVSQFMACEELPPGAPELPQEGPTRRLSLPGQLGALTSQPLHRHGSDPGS

SMILES	IC50 [µM]
CC1CC(c2ccccc2)CCN1CC(=O)Nc1ccc(N2CCCCCC2)cc1 (mixture of isomers) [Example 19, N-[4-(azepan-1-yl)phenyl]-2-(2-methyl-4-phenyl-1-piperidyl)acetamide]	0.5 to 2
O=C(CN1CCCCC1)Nc1ccc(N2CCCOCC2)cc1 [Example 1, N-[4-(1,4-oxazepan-4-yl)phenyl]-2-(1-piperidyl)acetamide hydrochloride]	2 to 10
CC1CCN(c2ccc(NC(=O)CN3CC4CCC3CC4)cn2)CC1 [Example 3, 2-(8-azabicyclo[3.2.1]octan-8-yl)-N-16-(4-methyl-1-piperidyl)-3-pyridyljacetamide]	0.5 to 2
O=C(CN1CCCOCC1)Nc1ccc(N2CCCCCC2)cc1 [Example 7, N-[4-(azepan-1-yl)phenyl]-2-(1,4-oxazepan-4-yl)acetamide hydrochloride]	2 to 10
O=C(CN1CCCC(F)C1)Nc1ccc(N2CCCCCC2)cc1 (stereo not shown) [Example 8, N-[4-(azepan-1-yl)phenyl]-2-(3-fluoro-1-piperidyl)acettamide]	0.5 to 2
O=C(CN1CCCCC1C(F)(F)F)Nc1ccc(N2CCCCCC2)cc1 (stereo not shown) [Example 9, N-[4-(azepan-1-yl)pheny]-2-[2-(trifluoromethyl)-1-piperidyl]acetamide]	0.5 to 2
O=C(CN1CCC(CO)CC1)Nc1ccc(N2CCCCCC2)cc1 [Example 10, N-[4-(azepan-1-yl)phenyl]-2-[4-(hydroxymethyl)-1-piperidyl]acetamide]	2 to 10
O=C(CN1CCCCC1CO)Nc1ccc(N2CCCCCC2)cc1 (stereo not shown) [Example 11, N-[4-(azepan-1-yl)phenyl]-2-[2-(hydroxymethyl)-1-piperidyl]acetamide]	2 to 10
CC(C)(O)C1CCN(CC(=O)Nc2ccc(N3CCCCCC3)cc2)CC1 [Example 12, N-[4-(azepan-1-yl)phenyl]-2-[4-(1-hydroxy-1-methyl-ethyl)-1-piperidyl]acetamide]	2 to 10
O=C(CN1CCC(O)(c2ccc(Cl)cc2)CC1)Nc1ccc(N2CCCCCC2)cc1 [Example 13, N-[4-(azepan-1-yl)phenyl]-2-[4-(4-chlorophenyl)-4-hydroxy-1-piperidyl]acetamide]	< 0.5
O=C(CN1CCCC1)Nc1ccc(N2CCCCCC2)cc1 [Example 14, N-[4-(azepan-1-yl)phenyl]-2-pyrrolidin-1-yl-acetamide hydrochloride]	2 to 10
CC1CCCN(CC(=O)Nc2ccc(N3CCCCCC3)cc2)C1 (stereo not shown) [Example 15]	2 to 10
O=C(CN1CCCCC1c1ccc(Cl)cc1)Nc1ccc(N2CCCCCC2)cc1 (stereo not shown) [Example 16, N-[4-(azepan-1-yl)phenyl]-2-[2-(4-chlorophenyl)-1-piperidyl]acetamide]	0.5 to 2
O=C(CN1CCCC(c2cccc(Cl)c2)C1)Nc1ccc(N2CCCCCC2)cc1 (stereo not shown) [Example 17, N-[4-(azepan-1-yl)phenyl]-2-[3-(3-chlorophenyl)-1-piperidyl]acetamide]	< 0.5
N#Cc1cccc(C2CCN(CC(=O)Nc3ccc(N4CCCCCC4)cc3)CC2)c1 [Example 18, N-[4-(azepan-1-yl)phenyl]-2-[4-(3-cyanophenyl)-1-piperidyl]acetamide]	< 0.5
O=C(CN1CCC(c2ccc(F)cc2)C1)Nc1ccc(N2CCCCCC2)cc1 (stereo not shown) [Example 20, N-[4-(azepan-1-yl)phenyl]-2-[3-(4-fluorophenyl)pyrrolidin-1-yl]acetamide]	0.5 to 2

SMILES	IC50 [µM]
O=C(CN1CCCC(OCc2ccccc2)C1)Nc1ccc(N2CCCCCC2)cc1 (stereo not shown) [Example 22, N-[4-(azepan-1-yl)phenyl]-2-(3-benzyloxy-1-piperidyl)acetamide]	0.5 to 2
O=C(CCN1CCCCC1)Nc1ccc(N2CCCCCC2)cc1 [Example 23]	2 to 10
CC(C(=O)Nc1ccc(N2CCCCCC2)cc1)N1CCCCC1 (stereo not shown) [Example 24, N-[4-(azepan-1-yl)phenyl]-2-(1-piperidyl)propanamide]	2 to 10
O=C(CN1CCCCC1)Nc1ccc(N2CCCCCC2)nc1 [Example 25, N-[6-(azepan-1-yl)-3-pyridyl]-2-(1-piperidyl)acetamide]	0.5 to 2
O=C(CN1C2CCC1CC2)Nc1ccc(N2CCCCCC2)nc1 [Example 26, 2-(7-azabicyclo[2.2.1]heptan-7-yl)-N-[6-(azepan-1-yl)-3-pyridyl]acetamide]	0.5 to 2
O=C(CNC1CCCCC1)Nc1ccc(N2CCCCCC2)nc1 [Example 27, N-[6-(azepan-1-yl)-3-pyridyl]-2-[cyclohexylamino]acetamide]	2 to 10
CN(CC(=O)Nc1ccc(N2CCCCCC2)nc1)C1CCCCC1 [Example 28]	2 to 10
O=C(CNC1CCCCCC1)Nc1ccc(N2CCCCCC2)nc1 [Example 29, N-[6-(azepan-1-yl)-3-pyridyl]-2-(cycloheptylamino)acetamide]	0.5 to 2
O=C(CNc1ccccc1)Nc1ccc(N2CCCCCC2)nc1 [Example 30, 2-anilino-N-[6-(azepan-1-yl)-3-pyridyl]acetamide]	0.5 to 2
O=C(CNCc1ccccc1)Nc1ccc(N2CCCCCC2)nc1 [Example 31, N-[6-(azepan-1-yl)-3-pyridyl]-2-(benzylamino)acetamide]	2 to 10
O=C(CN1CC2CCC(C2)C1)Nc1ccc(N2CCCCCC2)nc1 [Example 32, 2-(3-azabicyclo[3.2.1]octan-3-yl)-N-[6-(azepan-1-yl)-3-pyridyl]acetamide]	< 0.5
O=C(CN1CCCCC1)Nc1ccc(N2CCCCCC2)cn1 [Example 34]	2 to 10
O=C(CN1CCCCC1)Nc1cnc(N2CCCCCC2)nc1 [Example 35, N-[2-(azepan-1-yl)pyrimidin-5-yl]-2-(1-piperidyl)acetamide]	0.5 to 2
O=C(CN1CCCCC1)Nc1ccc(N2CCCCCC2)c(F)c1 [Example 36, N-[4-(azepan-1-yl)-3-fluoro-phenyl]-2-(1-piperidyl)acetamide]	< 0.5
O=C(CN1CCCCC1)Nc1ccc(N2CCCCCC2)cc1F [Example 38, N-4-(azepan-1-yl)-2-fluoro-phenyl1-2-(1-piperidyl)acetamide]	2 to 10
